Tests used:
[1] = system: HEK 293 P2X7 cells; assay: ATP/BzATP induced apoptosis, Cell Death Detection ELISA; assay type: cell-based, human; conditions: for induction of cell apoptosis: P2X7 expressing cells
Experimental: Cell Lines—HEK 293 cell line (human), is stabily transfected with the P2X7 receptor [9] to produce HEK 293 P2X7 cells.
(§1) Apoptosis—HEK-293 P2X7 (human) cells are treated with ATP and/or BzATP to induce apoptosis (Wen et al., 2003). The level of apoptosis is determined using a Cell Death Detection ELISA, which is based on DNA laddering. Various doses of P5P are added to the cells to determine its ability to inhibit ATP induced apoptosis. OxATP (Murgia et al., 1993), PPADS (Chessell I P et al., 1998) and/or KN-62 (Humphreys B D et al., 1998) are used as positive controls.

[2] = system: LPS primed THP-1 cells; assay: ATP induced IL-1β secretion, ELISA; assay type: cell-based; conditions: for inhibition of IL-1β secretion: LPS primed THP-1 cells treated with ATP
Experimental: LPS primed THP-1 cells are treated with ATP to induced IL-1β secretion (Grahames C B A et-al (1999) Br J Pharm 127:1915-1921). IL-1β secretion levels are determined by ELISA. Various doses of P5P are added to the cells to determine its ability to Inhibit the ATP induced IL-1β secretion. OxATP (Grahames et al., 1999), PPADS (Grahames et al., 1999), and/or KN-62 (Grahames et al., 1999) are used as positive controls.

[3] = Rabbit aortic balloon-injury model; assay type: in vivo; conditions: 10 mg/kg daily by gavage
Experimental: Rabbit Aortic Balloon-Injury Model—Forty male New Zealand White rabbits (2.5-3.0 kg) are used. Rabbits are fed regular rabbit chow (control, 20 rabbits) or a 1% cholesterol diet (treated, 20 rabbits) for 8 weeks. Half of each group receives 10 mg/kg P5P (provided by CanAm Bioresearch Inc.) daily by gavage, with the other half receiving saline by gavage. After 4 weeks, a 3F Fogarty embolectomy catheter (Baxter) is inserted into the right femoral artery of each rabbit, advanced 25 cm proximally, and then withdrawn to the origin with the balloon inflated to 0.2 mL saline, a step repeated twice (Lau et al., Probucol promotes functional reendothelialization in balloon-injured rabbit aortas. Circulation 2003; 107(15):2031-6). At 8 weeks, the right and left femoral arteries are harvested from each animal (left femoral arteries serve as uninjured controls). Segments for histology are pressure-perfused with formalin, stored in. 70% (vol/vol) ethanol, and then embedded in paraffin.
Histology—One 5 μm thick cross-section is taken from each of 6 segments of the femoral aorta and stained with hematoxylin and eosin. Morphometric analysis of the 6 arterial cross-sections per animal is performed using Imagespace software (Molecular Dynamics). The intimal and medial areas of each arterial cross-section specimen is measured, and the average intimal/medial area ratio is determined for each group.
Inflammatory Markers, Lipid Profile, and Homocysteine Levels—At the beginning and end of the study, and every 2 weeks throughout, blood samples are collected through a catheter inserted in the ear artery of conscious rabbits. Plasma interleukin-6 (IL-6) levels are measured with quantitative sandwich enzyme immunoassay employing commercial kits for rats (R&D Systems) (Oubina et al., Synergistic effect of angiotensin-converting enzyme (ACE) and 3-hydroxy-3-methylglutaryl-CoA (HMG-CoA) reductase inhibition on inflammatory markers in atherosclerotic rabbits. Clin Sci (Lond). 2003; 105(6):655-62). CRP plasma levels are measured with an immunoassay kit for rabbits (Alpco Diagnostics). Plasma cholesterol levels are measured using colorimetric reactions employing commercial kits (Roche Diagnostics). Homocysteine levels are determined by high performance liquid chromatography, as previously described (Zhloba and Blashko, Liquid chromatographic determination of total homocysteine in blood plasma with photometric detection. J Chromatogr B Analyt Technol Biomed Life Sci. 2004; 800(1-2):275-80).
Evaluation of Endothelial Function by Ultrasound—Ultrasound evaluation of endothelial function of the femoral aorta is performed at the beginning and end of the study, and every 2 weeks throughout (Drolet et al., Early endothelial dysfunction in cholesterol-fed rabbits: a non-invasive in vivo ultrasound study. Cardiovasc Ultrasound. 2004; 2(1):10). Rabbits are sedated using midazolam (0.5 mg/kg), butorphanol (0.5 mg/kg) and ketamine (30 mg/kg) IM. Marginal ear vein and artery are cannulated for drug infusions and arterial blood pressure monitoring, respectively. Heart rate is monitored continuously throughout the procedure. […]
Once the imaging of the aorta is optimal, the animals receive the following drug perfusions I.V. sequentially for 2 minutes each: 1) saline at 1 ml/min; 2) acetylcholine (Ach) at 0.05 μg/ml/min and Ach at 0.5 μg/ml/min. […] Images of the femoral aorta are recorded continuously through the entire procedure on standard S-VHS videotape for off-line analysis. […]

[4] = Double-blind placebo-controlled trial in PCI (angioplasty) patients; assay type: in vivo, human
Experimental: Study Design and Population—The study is a multicenter, double-blind, placebo-controlled, randomized trial. The protocol is approved by institutional review boards prior to commencement. Patients referred for elective percutaneous coronary interventional (PCI) are evaluated 14 days before their scheduled procedures. Eligible patients are asked to provide written informed consent and undergo medical history, physical examination, electrocardiography, hematology, and clinical biochemistry. Patients are eligible if they are scheduled to undergo PCI with or without stenting on one native coronary artery and have one de novo target lesion with luminal narrowing 50%. Subjects who have severe liver disease or serum creatinine 200 μmol/L; myocardial infarction within the past 7 days; left main stenosis >50%; ejection fraction <30%; have had PCI for another lesion in the preceding 6 months; are being treated for a restenotic lesion; or have scheduled atherectomy, brachytherapy, or PCI of a bypass graft before randomization are excluded. A total of 120 patients are enrolled, with 60 randomized to receive P5P and 60 to receive placebo.
The primary endpoint is clinical restenosis requiring target lesion revascularization at six months. The secondary end points are major adverse cardiac events (MACE) including death, myocardial infarction and revascularization.
Randomization and Drug Regimen—Patients are randomly assigned to receive P5P (provided by CanAm Bioresearch Inc.) 750 mg once day or placebo beginning 14 days before scheduled PCI. P5P or matched placebo is administered as 3 tablets given once daily. All patients will also receive an extra dose of P5P or matched placebos on the evening before PCI, according to random treatment assignment. After PCI, all patients are maintained on their assigned study regimen for 4 additional weeks.
PCI and Follow-Up Evaluation—PCI with or without stent placement and post-PCI management will be performed according to current clinical practice. ECGs are obtained before PCI, immediately thereafter, and the morning after PCI. Creatine kinase, creatine kinase-MB fraction, and troponin I are measured on the evening after PCI and the following morning. Patients are discharged after PCI with 4 weeks of the study medication. Aspirin 325 mg/d is given from the time of recruitment and for the entire study duration. All-patients treated with stents also receive clopidogrel 75 mg/d for 30 days after PCI. Patients will return at 1 Month, 3 months and 6 months for clinical evaluation and drug accountability. Patients are assessed for ischemic symptoms and adverse events, whether or not they were related to the study medication or PCI procedure. Blood chemistry values assessed at baseline are measured again at PCI discharge and at follow-up visits. Patients are readmitted for follow-up catheterization and IVUS 5 to 7 months after PCI. […]
IVUS Examinations and Measurements—IVUS examinations are performed with 30-MHz, 3.2 F ultrasound catheters (Tardif et al., Canadian Antioxidant Restenosis Trial (CART-1) Investigators. Effects of AGI-1067 and probucol after percutaneous coronary interventions. Circulation. 2003; 107(4):552-8). IVUS studies are recorded before, PCI whenever possible and are always performed after PCI (after final balloon inflation) and at follow-up (before any subsequent intervention). […] The preintervention, post-PCI, and follow-up studies are analyzed side by side. […]

[5] = system: hepatic cytochrome enzymes; assay: Inhibition of hepatic cytochrome enzymes; assay type: in vitro ADME
[6] = Tolerability and toxicity in animal and human studies; assay type: in vivo
[7] = system: freshly isolated adult rat cardiomyocytes; conditions: previous finding of the inventors (refs 89, 93); cited from earlier work
[8] = system: isolated perfused rat hearts; conditions: previous finding of the inventors (refs 89, 90); cited from earlier work
[9] = system: human platelet; conditions: cited from earlier work
[10] = cited from earlier work
[11] = system: wild type HEK 293 cells; assay: ATP/BzATP induced apoptosis in wild type control cells; assay type: cell-based, human; conditions: wild type cells without P2X7
Experimental: as §1
Control—All the experiments are carried out in wild type HEK 293 cells as a control.

[12] = 750 mg once a day from 14 days before to 4 weeks after PCI

Compound: Cc1ncc(COP(=O)(O)O)c(C=O)c1O [P5P, Pyridoxal-5′-phosphate]
- inhibition of ATP mediated cell apoptosis ([1]; P2X7 expressing HEK 293 cells, vs untreated cells): inhibits
- inhibition of IL-1β secretion [2]: inhibits
- CRP levels ([3]; 8 weeks): lowered
- homocysteine levels ([3]; 8 weeks): lowered
- lipid profile ([3]; 8 weeks): improved
- incidence of restenosis ([3]; balloon injury): decreased incidence
- endothelial function ([3]; ultrasound): improved
- CRP levels [4, 12]: lowered
- homocysteine levels [4, 12]: lowered
- incidence of restenosis following PCI [4, 12]: decreased incidence
- lipid profile [4, 12]: improved
- endothelial function ([4]; 750 mg once a day, brachial artery ultrasound): improved
- inhibition of hepatic cytochrome enzymes [5]: does not inhibit
- tolerability [6]: easily tolerated
- toxicity [6]: low toxicity
- inhibition of ATP induced calcium influx [7]: inhibits
- inhibition of positive inotropic effects of ATP [8]: inhibits
- inhibition of prostaglandin E1 and theophylline-induced platelet aggregation ([9]; in vitro (ref 123)): inhibit
- inhibition of platelet aggregation and 14C-5HT release ([9]; induced by ADP, thrombin, adrenaline, platelet activating factor, arachidonic acid, in vitro (ref 122)): inhibit
- inhibition of thromboxane B2 generation ([9]; induced by all of these agents except arachidonic acid (ref 122)): inhibited

Compound: Cc1nc(N=Nc2ccc(S(=O)(=O)O)cc2S(=O)(=O)O)c(COP(=O)(O)O)c(C=O)c1O [PPADS]
- inhibition of IL-1β secretion [2]: inhibits

Compound: Cc1ncc(CO)c(CO)c1O [pyridoxine]
- plasma antithrombin III (AT III) activity ([10]; atherosclerotic patients (ref 16)): significantly increased
- AT III activity ([10]; patients with genetic homocysteinuria (ref 125)): increase
- bleeding time ([10]; patients, 100 mg twice daily for 15 days (ref 124)): significantly prolonged
- platelet aggregation induced with ADP or epinephrine ([10]; plasma from patients, 100 mg twice daily for 15 days (ref 124)): significantly inhibited

Compound: Nc1ncnc2c1ncn2[C@@H](C=O)O[C@@H](C=O)COP(=O)(O)OP(=O)(O)OP(=O)(O)O [OxATP]
- inhibition of IL-1β secretion [2]: inhibits

Compound: CN([C@@H](Cc1ccc(OS(=O)(=O)c2cccc3cnccc23)cc1)C(=O)N1CCN(c2ccccc2)CC1)S(=O)(=O)c1cccc2cnccc12 [KN-62]
- inhibition of IL-1β secretion [2]: inhibits

Compound: Nc1ncnc2c1ncn2[C@@H]1O[C@H](COP(=O)(O)OP(=O)(O)OP(=O)(O)O)[C@@H](O)[C@H]1O [ATP, adenosine triphosphate]
- induction of cell apoptosis [1]: induce
- induction of cell apoptosis [11]: do not induce
- induction of IL-1β secretion ([2]; LPS primed THP-1 cells): induces

Compound: BzATP
- induction of cell apoptosis [1]: induce
- induction of cell apoptosis [11]: do not induce

Reference: patent US20080175880A1, “Pyridoxal-5-Phosphate And Stent For The Treatment And Prevention Of Atherosclerosis And Restenosis” (MEIDCURE INTERNATIONAL INC., priority 2004, published 2008)
